Reference: PMC12018053 (Biochemistry and Biophysics Reports, 2025)
Converted amounts (≈) assume the structure as drawn.

Legend:
[1] = Microsomal stability assay in rat liver microsomes; assay type: in vitro ADME; conditions: pH 7.4
5-HT2C = biological target: T1, 5-HT2C (Homo sapiens, UniProt P28335); assay: NIMH PDSP primary binding screen, 5-HT2C; conditions: read-out: Inhibition (%) 5-HT2C
T1 sequence (P28335 33-458): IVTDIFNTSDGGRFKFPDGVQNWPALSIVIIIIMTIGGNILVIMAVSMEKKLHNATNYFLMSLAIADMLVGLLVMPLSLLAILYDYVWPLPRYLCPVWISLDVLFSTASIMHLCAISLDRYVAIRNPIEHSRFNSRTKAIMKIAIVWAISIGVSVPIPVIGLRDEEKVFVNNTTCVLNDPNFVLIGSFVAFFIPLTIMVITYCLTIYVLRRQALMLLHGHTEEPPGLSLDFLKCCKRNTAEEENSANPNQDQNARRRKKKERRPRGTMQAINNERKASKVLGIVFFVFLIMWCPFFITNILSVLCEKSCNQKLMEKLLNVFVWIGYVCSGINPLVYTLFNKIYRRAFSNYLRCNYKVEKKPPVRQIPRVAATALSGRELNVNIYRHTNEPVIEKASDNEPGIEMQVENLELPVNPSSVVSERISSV

Human sEH = biological target: T2, Human sEH (Homo sapiens, UniProt P34913); assay: sEH fluorescent-based inhibition assay; assay type: biochemical
T2 sequence (P34913 1-555): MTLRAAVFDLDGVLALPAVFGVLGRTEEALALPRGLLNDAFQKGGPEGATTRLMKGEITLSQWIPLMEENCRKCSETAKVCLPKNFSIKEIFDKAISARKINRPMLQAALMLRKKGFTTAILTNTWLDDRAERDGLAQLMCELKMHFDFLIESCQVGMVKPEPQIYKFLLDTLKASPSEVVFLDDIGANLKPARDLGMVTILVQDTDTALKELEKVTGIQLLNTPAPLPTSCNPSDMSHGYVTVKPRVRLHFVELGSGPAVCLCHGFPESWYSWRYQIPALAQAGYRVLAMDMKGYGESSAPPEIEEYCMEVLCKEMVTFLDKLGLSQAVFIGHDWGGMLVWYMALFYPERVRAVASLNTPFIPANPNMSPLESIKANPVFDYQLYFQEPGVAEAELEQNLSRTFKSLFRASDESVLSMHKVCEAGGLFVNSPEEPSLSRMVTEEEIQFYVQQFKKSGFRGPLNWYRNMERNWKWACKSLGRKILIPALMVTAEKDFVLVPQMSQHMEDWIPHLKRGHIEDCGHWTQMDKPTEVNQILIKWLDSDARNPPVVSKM

[2] = tested on: female Sprague-Dawley rats; assay: Orofacial formalin test without nitroglycerin; assay type: in vivo, rat; conditions: 3 mg/kg i.p. 30 min before formalin, no nitroglycerin pretreatment
[3] = Microsomal stability assay in human liver microsomes; assay type: in vitro ADME; conditions: pH 7.4
5-HT1D = 5-HT1D (Homo sapiens, UniProt P28221); assay: NIMH PDSP primary binding screen, 5-HT1D; conditions: read-out: Inhibition (%) 5-HT1D
5-HT1D, sequence (P28221 whole entry, species assumed): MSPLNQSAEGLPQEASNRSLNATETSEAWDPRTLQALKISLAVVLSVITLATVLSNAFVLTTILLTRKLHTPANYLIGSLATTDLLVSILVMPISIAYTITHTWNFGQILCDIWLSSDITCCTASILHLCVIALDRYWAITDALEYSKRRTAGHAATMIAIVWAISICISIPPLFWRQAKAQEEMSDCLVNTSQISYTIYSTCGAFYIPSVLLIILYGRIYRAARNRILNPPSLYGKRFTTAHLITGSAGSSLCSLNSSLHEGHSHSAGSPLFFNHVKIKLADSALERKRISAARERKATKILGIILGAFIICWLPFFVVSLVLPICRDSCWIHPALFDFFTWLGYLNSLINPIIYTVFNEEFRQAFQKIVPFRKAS

Mouse sEH = biological target: T3, Mouse sEH (Mus musculus, UniProt P34914); assay: sEH fluorescent-based inhibition assay; assay type: biochemical
T3 sequence (P34914 1-554): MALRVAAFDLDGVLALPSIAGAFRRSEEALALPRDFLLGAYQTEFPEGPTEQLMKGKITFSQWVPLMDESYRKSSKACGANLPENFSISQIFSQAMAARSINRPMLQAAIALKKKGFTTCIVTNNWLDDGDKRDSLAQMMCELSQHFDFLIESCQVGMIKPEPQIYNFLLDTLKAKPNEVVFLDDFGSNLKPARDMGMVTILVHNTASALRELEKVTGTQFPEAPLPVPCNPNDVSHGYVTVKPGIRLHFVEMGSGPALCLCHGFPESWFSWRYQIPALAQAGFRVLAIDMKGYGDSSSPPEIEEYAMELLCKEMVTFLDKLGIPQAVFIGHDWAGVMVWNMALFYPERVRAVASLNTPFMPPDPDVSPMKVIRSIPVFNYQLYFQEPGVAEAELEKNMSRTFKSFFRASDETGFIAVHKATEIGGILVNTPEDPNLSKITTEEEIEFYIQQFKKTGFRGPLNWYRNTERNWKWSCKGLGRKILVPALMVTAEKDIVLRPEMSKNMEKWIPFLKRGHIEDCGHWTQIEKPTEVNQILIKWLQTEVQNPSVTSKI

physchem = conditions: sodium phosphate buffer, 24 °C, pH 7.4, aqueous buffer, kinetic from dmso stock
5-HT1B = 5-HT1B (Homo sapiens, UniProt P28222); assay: NIMH PDSP primary binding screen, 5-HT1B; conditions: read-out: Inhibition (%) 5-HT1B
5-HT1B, sequence (P28222 whole entry, species assumed): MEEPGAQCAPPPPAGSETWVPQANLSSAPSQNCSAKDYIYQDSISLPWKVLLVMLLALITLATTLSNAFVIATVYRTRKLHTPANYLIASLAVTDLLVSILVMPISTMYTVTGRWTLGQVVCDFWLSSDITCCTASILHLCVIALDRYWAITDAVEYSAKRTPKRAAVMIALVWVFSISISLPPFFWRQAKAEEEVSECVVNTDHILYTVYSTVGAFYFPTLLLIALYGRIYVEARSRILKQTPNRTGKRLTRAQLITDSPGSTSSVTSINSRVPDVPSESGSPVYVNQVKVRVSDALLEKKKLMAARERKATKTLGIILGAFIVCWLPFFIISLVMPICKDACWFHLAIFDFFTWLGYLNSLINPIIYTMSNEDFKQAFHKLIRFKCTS

Rat sEH = biological target: T4, Rat sEH (Rattus norvegicus, UniProt P80299); assay: sEH fluorescent-based inhibition assay; assay type: biochemical
T4 sequence (P80299 1-554): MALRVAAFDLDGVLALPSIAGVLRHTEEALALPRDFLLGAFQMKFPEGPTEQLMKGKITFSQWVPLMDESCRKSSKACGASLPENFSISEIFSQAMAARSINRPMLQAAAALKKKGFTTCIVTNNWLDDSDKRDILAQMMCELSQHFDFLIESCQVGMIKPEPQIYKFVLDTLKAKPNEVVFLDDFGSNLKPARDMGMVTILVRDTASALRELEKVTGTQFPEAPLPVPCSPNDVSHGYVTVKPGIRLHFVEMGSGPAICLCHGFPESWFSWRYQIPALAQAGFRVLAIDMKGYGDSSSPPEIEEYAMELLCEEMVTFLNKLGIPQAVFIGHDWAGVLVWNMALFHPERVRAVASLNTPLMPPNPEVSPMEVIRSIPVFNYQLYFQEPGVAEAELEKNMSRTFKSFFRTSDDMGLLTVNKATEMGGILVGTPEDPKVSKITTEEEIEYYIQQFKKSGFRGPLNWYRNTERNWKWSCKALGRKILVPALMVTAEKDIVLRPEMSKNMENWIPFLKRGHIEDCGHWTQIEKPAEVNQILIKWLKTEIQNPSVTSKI

half-life at 1 µM [1]: 25.6 min
microsomal CLint at 1 µM [1]: 54 µL/min/mg
inhibition at 10 µM (5-HT2C): 21.5 ± 4.63%
IC50 (Human sEH): 2.2 nM
half-life at 1 µM [3]: 58 min
microsomal CLint at 1 µM [3]: 23.7 µL/min/mg
inhibition at 10 µM (5-HT1D): 40.9 ± 11.2%
IC50 (Mouse sEH): 107 nM
solubility (physchem): 54.4 µM (≈ 27.5 µg/mL)
inhibition at 10 µM (5-HT1B): 12.4 ± 2.29%
IC50 (Rat sEH): 1 nM
SMILES: O=C(Nc1ccc(-c2ccc3ccncc3c2)cc1)C1CCN(S(=O)(=O)c2ccccc2Cl)CC1 [Compound 4f, 1-((2-chlorophenyl)sulfonyl)-N-(4-(isoquinolin-7-yl)phenyl)piperidine-4-carboxamide]
Time spent rubbing the injected area vs vehicle [2]: no significant difference
